According to US8609173B2, “Compositions comprising sweetness enhancers and methods of making them” (Senomyx Inc., priority 2008, dated 2013):
Values belong to the molecule of their own block, whether it stands above or below them.

How the values were obtained:
[1] = test system: Panelists; experiment: Paired comparison taste test, cola composition; format: in vivo, Human; details: for Sweetness comparison (conclusion): p>0.10; for Sample selected as sweeter by panelists, Total: vs Cola with 100% Sucrose, n = 39
Description: Cola compositions were prepared using the following ingredients and evaluated for sweetness and/or lingering taste.
The cola emulsion, above, contains the ingredients below:
Panelists evaluated two solutions in a paired comparison taste test procedure and were instructed to select the sweeter of the two samples.

[2] = Preparation of liquid solutions in food grade solvents (dissolution trials, Table 3); format: physicochemical; details: for solubility rate: propylene glycol
Description: Liquid compositions of 3-(4-amino-2,2-dioxide-1H-benzo[c][1,2,6]thiadiazin-5-yloxy)-2′,2′-dimethyl-N-propylpropanamide were prepared using a variety of different solvents (Table 3). It was discovered by increasing the pH of the solution with alkaline substance, such as alkali metal salt, one can increase the concentration level of 3-(4-amino-2,2-dioxide-1H-benzo[c][1,2,6]thiadiazin-5-yloxy)-2′,2′-dimethyl-N-propylpropanamide in solutions. Examples of suitable alkali metal salt include, but are not limited to, sodium bicarbonate, sodium carbonate, sodium hydroxide, and the like. In propylene glycol, sodium bicarbonate will raise pH from 7.8 to 8.5; the solubility rate of 3-(4-amino-2,2-dioxide-1H-benzo[c][1,2,6]thiadiazin-5-yloxy)-2′,2′-dimethyl-N-propylpropanamide will be increased from 0.5% to 1.0%.
• 1. Weigh a desired amount of compound and sodium bicarbonate. • 2. Calculate the volume of food grade solvent(s) (water, ethyl alcohol, isopropyl alcohol, butylenes glycol, propylene glycol, triacetin, glycerol, vegetable oils (soy, corn, peanut, persic, cottonseed, sesame), olive oil, fractionated coconut oil, neobee, tributyrin, mono and diglycerides, ethyl lactate, ethyl levulinate, butyl stearate, triethyl citrate, diethyl succinate, diethyl malonate, acetic acid, lactic acid, phosphoric acid, benzyl alcohol, tetrahydrofurfural alcohol, D-limonene, γ-valerolactone, butyrolactone, polyethylene glycol sorbitan monostearate (Tween®), etc. to add to the dry, weighed out compound to make a concentration of 1,000-50,000 ppm (0.1-5%). • 3. Pre heat the appropriate amount of solvent to 100 to 200° F. while stirring at 1,100 rpm on a hot plate using a stir bar. • 4. Add pre-weighed compound to heated solvent (when temperature reaches 100 to 200° F.). • 5. Continue heating solvent and inspect to insure complete dissolution, return to the hot plate if necessary. Preparation Procedure for Water as a Solvent:
Preparation Procedure of the Liquid Diluted Form (without Heat): • 1. Weigh desire amount of compound. • 2. Calculate the volume of food grade solvent(s) (water, ethanol, propylene glycol, triacetin, glycerol, neobee, DI water, phosphoric acid, lactic acid, olive oil) to add to the dry, weighed out compound to make a concentration of 1,000-50,000 ppm (0.1-5%). • 3. Stir solvent at 1,100 rpm on a hot plate using a stir bar. • 4. Add pre-weighed compound to solvent. • 5. Continue stirring and inspect to insure complete dissolution, return to the hot plate if necessary.

[3] = test system: Panelists; experiment: Paired comparison human taste test, chocolate milk; format: in vivo
Description: Chocolate beverage powder can be prepared using, for example, the following ingredients and reconstituted in milk.
A KitchenAide mixer is equipped with a wire whip attachment and used for mixing sugar and salt for 5 seconds. Lecithin is added and the resulting mixture is mixed for an additional 5 seconds. Cocoa, maltodextrin, and vanillin are added and the mixture is mixed for another 10 seconds.
Chocolate milk preparations were prepared by combining a chocolate beverage mixture with milk and the appropriate amount of sugar, or sugar and 3-(4-amino-2,2-dioxide-1H-benzo[c][1,2,6]thiadiazin-5-yloxy)-2′,2′-dimethyl-N-propylpropanamide. 75.0 grams of Full Sugar Chocolate Beverage Powder was mixed into 250 mls of cold (40° F.) 2% lowfat milk and mixed with a wire whip until dissolved. 45.5 grams of the 50% Sugar Chocolate Beverage Powder was mixed into 250 mls of cold (40° F.) 2% lowfat milk and mixed with a wire whip until the powder was dissolve. The Compound A was dissolved into a 0.10% concentration level in propylene glycol and added to the chocolate milk, mixed with a wire whip until homogenous, about 2 minutes.

[4] = test system: External panelists; experiment: Paired comparison test (2-alternative forced choice), Example 3B, sucrose; format: in vivo, Human; details: 9% sucrose chosen, vs 6% Sucrose + 10 ppm (35.29 μM) compound; n = 28
Description: Several types of sensory tests were used to determine the efficacy of 5-(neopentyloxy)-1H-benzo[c][1,2,6]thiadiazin-4-amino-2,2-dioxide in enhancing sweetness of sucrose. Two types of tests were conducted: • 1) Sensory scaling tests were performed using a 15-point percent sucrose equivalence scale for sweetness in order to evaluate sweetness enhancement 5-(neopentyloxy)-1H-benzo[c][1,2,6]thiadiazin-4-amino-2,2-dioxide in sucrose, or in fructose. • 2) Paired comparison tests (2-alternative forced choice difference tests) were used to determine sweetness equivalence for solutions of sucrose vs. 5-(neopentyloxy)-1H-benzo[c][1,2,6]thiadiazin-4-amino-2,2-dioxide or buffer vs. 5-(neopentyloxy)-1H-benzo[c][1,2,6]thiadiazin-4-amino-2,2-dioxide. Stimuli:
Panelists performed 2 directional paired comparison tests to determine which sample was sweeter. The test compared the sweetness intensity of 9% sucrose to that of 6% sucrose+10 ppm (35.29 μM) 5-(neopentyloxy)-1H-benzo[c][…]thiadiazin-4-amino-2,2-dioxide. Panelists were also to comment on the difficulty of the test and if any off tastes were perceived. Samples were completely randomized.

- Results (dissolution) ([2]; Ethanol, 1.0%, Ambient/over 30 minutes): Did not go into solution
- Results (dissolution) ([2]; Glycerol, 0.1%, Ambient/over 30 minutes): Did not go into solution
- Results (dissolution) ([2]; Lactic Acid, 1.0%, Ambient/over 30 minutes): Did not go into solution
- Results (dissolution) ([2]; Neobee, 0.1%, 185° F./over 30 minutes): Did not go into solution
- Results (dissolution) ([2]; Neobee, 0.1%, Ambient/over 30 minutes): Did not go into solution
- Results (dissolution) ([2]; Olive Oil (Star Original), 0.1%, 150° F./over 30 minutes): Did not go into solution
- Results (dissolution) ([2]; Olive Oil (Star Original), 0.1%, Ambient/over 30 minutes): Did not go into solution
- Results (dissolution) ([2]; Phosphoric acid, 0.1%, Ambient/over 30 minutes): Did not go into solution
- Results (dissolution) ([2]; Propylene Glycol, 0.3%, Ambient/over 30 minutes): Did not go into solution
- Results (dissolution) ([2]; Propylene Glycol, 0.5%, Ambient/over 30 minutes): Did not go into solution
- Results (dissolution) ([2]; Propylene Glycol, 1.0%, Ambient/over 30 minutes): Did not go into solution
- Results (dissolution) ([2]; Triacetin, 0.1%, Ambient/over 30 minutes): Did not go into solution
- concentration obtained ([2]; in ethanol): about 0.1 wt. %
- concentration readily obtained ([2]; in propylene glycol): ≤ 0.5%
- concentration obtained ([2]; in water): 10 ppm
- solubility rate ([2]; pH 7.8, before sodium bicarbonate): 0.5%
- solubility rate ([2]; sodium bicarbonate raises pH to 8.5): 1.0%
Structure (SMILES): CCCNC(=O)C(C)(C)COc1cccc2c1C(N)=NS(=O)(=O)N2 [3-(4-amino-2,2-dioxide-1H-benzo[c][1,2,6]thiadiazin-5-yloxy)-2′,2′-dimethyl-N-propylpropanamide]
- Sweetness comparison (conclusion) ([1]; 60% sucrose cola + 3 ppm (8.47 μM) compound vs 100% sucrose cola): no significant difference in sweetness
- Sweetness comparison (conclusion) ([1]; 66% sucrose cola + 3.19 ppm (8.47 μM) compound vs 100% sucrose cola): no significant difference in sweetness
- Sample selected as sweeter by panelists, Total ([1]; Cola with 60% Sucrose + 3 ppm (8.47 μM) compound chosen): 18
- Sample selected as sweeter by panelists, Total ([1]; Cola with 66% Sucrose + 3.19 ppm (8.47 μM) compound chosen): 22
- Sweetness comparison (statement) ([1]; cola with reduced sucrose + 3 ppm or 3.19 ppm compound vs 100% sucrose cola): approximately the same sweetness
- Sample selected as sweeter by panelists, Total ([3]; Chocolate Milk with 50% Sugar + compound (7 ppm/(20 μM)) chosen, vs 100% Sugar, n = 51): 28
- Sweetness comparison (conclusion) ([3]; chocolate milk with 50% Sugar + compound (7 ppm/(20 μM)) vs full sugar, p>0.10): not significantly different in sweetness

Structure (SMILES): OC[C@H]1O[C@@](CO)(O[C@H]2O[C@H](CO)[C@@H](O)[C@H](O)[C@H]2O)[C@@H](O)[C@@H]1O [Sucrose, sucrose]
- Sample selected as more sweet by panelists, Total [4]: 9
